Results taken from US6677306B1, “Chondrogenic and osteogenic inducing molecule” (Northwestern University, priority 1998, dated 2004).
Entries after “also recorded” stand apart in the source; their conditions may differ.

How the values were obtained:
[1] = system: embryonic muscle fibroblasts (EMF); assay: EMF [35S]-SO4-incorporation assay (sulfate incorporation into proteoglycan); assay type: cell-based, rat; conditions: for activity in directing change in phenotype of embryonic rat muscle fibroblasts in vitro: compared with rBMP-2
From the text: Embryonic Muscle Fibroblast (EMF) Tissue Culture Assay Embryonic Muscle Fibroblasts. Rat EMF cells were derived from the thigh muscles of 20 day old Sprague Dawley rat embryos for use in primary tissue culture assays using a modification of the Koskinen harvesting technique (Koskinen et al., 1985), and grown in growth media (GM) [α-Modified Eagle's Medium (αMEM , Life Technologies, Gaithersburg, Md.), containing 10% heat inactivated fetal bovine serum (FBS), 1% Penicillin/Streptomycin (P/S)] in 5% O2/95% air at 37° C. EMFs were frozen at passage 2 (P-2).
Short Term Culture and Labeling with ^35SO4—Sulfate. The EMFs were plated (day 0) at a concentration of 10^4 cells per well in a 96 well plate which had been precoated with 100 μl of a 50 μg/ml solution of type I Rat Tail Collagen (Collaborative Biomedical Products). The cells were grown for 5 days in GM. On day 5, the cells were conditioned by removing the GM and adding conditioning media (CM) (αMEM containing 0.5% FBS, 1 % P/S) for 24 hours. This media was replaced with 100 μl of fresh CM, just prior to the addition of the test factors (hour 0). Test factors were added to test wells in triplicate. PBS/0. […] 1% BSA, were used as positive controls. Four hours following the addition of factors, the cells were labeled with 1 μCi ^35S—SO4/10 μl sterile PBS/well/96 well plate for 20 hours.
Assay of ^35S Sulfate Incorporation Into Proteoglycans in the Medium. In a departure from the Koskinen et al. (1985) protocol, glycosaminoglycan synthesis was routinely determined by the measurement of incorporation of ^35S sulfate (ICM Biomedical, Costa Mesa, Calif.) into the total cetylpyridinium chloride (CPC)-precipitable materials in the media without prior papain digestion. […] The total medium from each well (˜115 μl) was placed into a 13×100 mm glass culture tube. 150 μl of 100 μg/ml Chondroitin Sulfate A Sodium Salt (Sigma, St. Louis, Mo.) at 4° C. (buffer C), was added to each tube to serve as a carrier. 500 μl of 2.0 mM MgSO4. 4° C. (buffer B), was added. The mixture was incubated in a 37° C. water bath with shaking for 30 minutes. One ml of 1% CPC in 0.02M NaCl (buffer D) was added and incubated at 37° C. for 60 minutes in the water bath.
The samples were filtered through Whatman GF/A glass microfibre filters using a Millipore 12 well filtration device. The contents of each glass tube were individually poured into one of the wells under suction. The tube and filters were washed with buffer B 3 times. The filters were allowed to dry briefly, and were transferred to a scintillation vial. Then 5 ml scintillation cocktail was added per vial and the radioactive counts were measured in the scintillation counter.
In vitro assay for chondrogenic activity: The purified recombinant proteins were tested for biological activity by the assay for enhanced incorporation of ^35S—SO4 into proteoglycan (8,11) by embryonic rat muscle fibroblasts (EMF). The EMF were seeded onto type I collagen coated 96 well plates, with an initial loading of 10^4 cell/well. The cells were grown to near confluence in alpha MEM, 10% FBS, 1% Pen/Strep in 5 days. At day 5 the growth media was replaced with conditioning media (CM), alpha MEM, 0.5% FBS, 1% Pen/Strep, and grown for an additional 24 h. Fresh CM containing the factors to be tested, was added at the concentrations noted. Four hours later, 1 μCi^35 S—SO4 in 10 μL sterile PBS was added per well, and incubation was continued for 20 h. The ^35S—SO4 incorporated into secreted proteoglycan was determined by precipitation of the proteoglycan with cetyl pyridinium chloride, as described above, followed by scintillation counting of the precipitate. The cell layer was trypsinized and the number of cells counted.

[2] = system: quadriceps of Long-Evans rats; assay: In vivo osteogenic activity, poly(lactide)-poly(glycolide) scaffold implants in quadriceps; parameters: species or system rat; conditions: for mineral deposition in implants, Alizarin Red and von Kossa staining / radiograph of implants after excision, mineralization pattern / vascularization, cell infiltration and extracellular matrix in implants (H&E) / ingrowth of capillaries and extracellular matrix formation, r(A-4) versus rA4 implants: 4 weeks; for vascularization, cell infiltration and extracellular matrix in implants (H&E): FIG. 15; for activity in inducing onset of osteogenesis in muscle implants in vivo: compared with rBMP-2
Experimental: In vivo osteogenic activity. The recombinant proteins, Emdogain and controls were each included in a bioabsorbable polymer matrix implants. The implants were prepared in poly (lactide)-poly(glycolide) scaffolds by the procedure of Whang et al. (1998) with 167 μg per implant. Implants were placed in the quadriceps of the hind legs of 100 g, 4 week old, male Long-Evans rats. Each animal received a negative control implant containing 167 μg of BSA in PBS. The implants were kept in place for 28 days. The implants were removed and radiographed, then they were fixed in 4% paraformaldehyde, dehydrated in graded ethanol and embedded in paraffin. Sections (7μ thick) were cut and stained with either Von Kossa or Alizarin Red dyes, both of which can indicate the presence of mineralized deposits containing divalent cations. To assure that the stains seen were calcific deposits, serial sections were treated with 5% EGTA for 10 min before staining.

[3] = system: embryonic rat muscle fibroblasts (EMF); assay: Cell number of EMF after exposure to factors; assay type: cell-based; conditions: after 5 days in culture, after a 24 h exposure
Experimental: In vitro assay for chondrogenic activity: The purified recombinant proteins were tested for biological activity by the assay for enhanced incorporation of ^35S—SO4 into proteoglycan (8,11) by embryonic rat muscle fibroblasts (EMF). The EMF were seeded onto type I collagen coated 96 well plates, with an initial loading of 10^4 cell/well. The cells were grown to near confluence in alpha MEM, 10% FBS, 1% Pen/Strep in 5 days. At day 5 the growth media was replaced with conditioning media (CM), alpha MEM, 0.5% FBS, 1% Pen/Strep, and grown for an additional 24 h. Fresh CM containing the factors to be tested, was added at the concentrations noted. Four hours later, 1 μCi^35 S—SO4 in 10 μL sterile PBS was added per well, and incubation was continued for 20 h. The ^35S—SO4 incorporated into secreted proteoglycan was determined by precipitation of the proteoglycan with cetyl pyridinium chloride, as described above, followed by scintillation counting of the precipitate. The cell layer was trypsinized and the number of cells counted. Incorporation is presented as counts per minute per cell ×10^3. Recombinant human BMP2 (A kind gift from the Genetics Institute, Boston, Mass.) and the bioactive crude S100 fractions from rat incisor dentin (Amar et al., 1991) and/or bovine dentin (see Example 1) were used as the positive controls. […]

r(A-4): recombinant polypeptide SEQ ID NO:5, secreted form of rat amelogenin gene splice product, exons 2, 3, 5, 6d and 7 (MPLPPHPGSPGYINLSYEVLTPLKWYQSMIRQPPLSPILPELPLEAWPATDKTKREEVD; Recombinant rat amelogenin)
activity in directing change in phenotype of embryonic rat muscle fibroblasts in vitro [1]: equivalent to rBMP-2
concentration as low as which production of 35S-SO4-labeled proteoglycan was stimulated ([1]; monolayer culture, FIG. 13): 1 ng/mL
concentration as low as which production of 35S-SO4-labeled proteoglycan was stimulated (molar) ([1]; monolayer culture, FIG. 13): ~140 pM
alkaline phosphatase in implants ([2]; 167 μg per implant): positive
mineral deposition in implants, Alizarin Red and von Kossa staining ([2]; 167 μg per implant): stained strongly
radiograph of implants after excision, mineralization pattern ([2]; 167 μg per implant): heavier mineralization around the periphery
vascularization, cell infiltration and extracellular matrix in implants (H&E) ([2]; 167 μg per implant): vascularized and filled with extracellular matrix; also recorded: infiltrated by many cells, and an abundant network of capillaries
mineral deposition in implants, Alizarin Red and von Kossa staining ([2]; 167 μg per implant, listed as (A-4)): highly positive for deposition of mineral
ingrowth of capillaries and extracellular matrix formation, r(A-4) versus rA4 implants [2]: more prominent
activity in inducing onset of osteogenesis in muscle implants in vivo [2]: equivalent to rBMP-2
cell number (growth factor action) [3]: did not increase

B1: rA4: recombinant polypeptide SEQ ID NO:6, secreted form of rat amelogenin gene splice product, exons 2, 3, 4, 5, 6d and 7 (protein)
chain: MPLPPHPGSPGYINLSYEKSHSQAINTDRTALVLTPLKWYQSMIRQPPLSPILPELPLEAWPATDKTKREEVD
modifications: Recombinant rat amelogenin
activity in directing change in phenotype of embryonic rat muscle fibroblasts in vitro [1]: equivalent to rBMP-2
stimulation of 35S-SO4-labeled proteoglycan production at low concentrations, relative to r(A-4) ([1]; equivalent low (ng/ml) concentrations): less active
effect on sulfate incorporation compared with rhBMP-2 positive control ([1]; rhBMP-2 at 10 ng/ml): quite comparable
mineral deposition in implants, Alizarin Red and von Kossa staining ([2]; 167 μg per implant): calcified to a lesser extent
radiograph of implants after excision, mineralization pattern ([2]; 167 μg per implant): more punctate deposition of mineral
vascularization, cell infiltration and extracellular matrix in implants (H&E) ([2]; 167 μg per implant): vascularized and filled with extracellular matrix; also recorded: vascularized but more sparsely than the r(A-4) implants
mineral deposition in implants, Alizarin Red and von Kossa staining ([2]; 167 μg per implant, listed as A4): some focal deposits of mineral
ingrowth of capillaries and extracellular matrix formation, r(A-4) versus rA4 implants [2]: islands of capillaries, and the formation of a surrounding extracellular matrix was also evident
activity in inducing onset of osteogenesis in muscle implants in vivo [2]: equivalent to rBMP-2
cell number (growth factor action) [3]: increase

B2: rB4: recombinant full-length rat amelogenin, exons 2, 3, 4, 5, 6 and 7 (protein, UniProt P63278 1-210, looked up)
chain: MGTWILFACLLGAAFAMPLPPHPGSPGYINLSYEKSHSQAINTDRTALVLTPLKWYQSMIRQPYPSYGYEPMGGWLHHQIIPVLSQQHPPSHTLQPHHHLPVVPAQQPVAPQQPMMPVPGHHSMTPTQHHQPNIPPSAQQPFQQPFQPQAIPPQSHQPMQPQSPLHPMQPLAPQPPLPPLFSMQPLSPILPELPLEAWPATDKTKREEVD
modifications: full-length
mineral deposition in implants, Alizarin Red and von Kossa staining ([2]; 167 μg per implant): inactive
